SMILES strings stand for the structures. Non-standard residues stand in square brackets, D forms with d. Residues, ends and D or L forms follow the SMILES beside them. *: point of attachment. Lauroyl = CCCCCCCCCCCC(=O)*

This note sets out measurements from patent US20150038435A1, “N-TERMINALLY MODIFIED OLIGOPEPTIDES AND USES THEREOF” (Novo Nordisk A/S, priority 2012, published 2015).

The data set is described as follows: Rat PK following intraintestinal injection. The following applies: of insulin, 60 nmol/kg intraintestinal, Composition 3: 3% compound, propylene glycol, diglycerol caprylate, Tween 20. It is filed as in vivo. Here is the method: Anaesthetized rats were dosed intraintestinally (into jejunum) with reference compounds and N-terminally acylated peptide or oligopeptides of the invention. Plasma concentrations of the employed compounds as well as changes in blood glucose were measured at specified intervals for 4 hours or more post-dosing. Pharmacokinetic parameters were subsequently calculated using WinNonLin Professional (Pharsight Inc., Mountain View, Calif., USA).
The compositions for the intraintestinal injection model were prepared for example according to the following composition (in weight %):
The anesthetized rat was placed on a homeothermic blanket stabilized at 37° C. A 20 cm polyethylene catheter mounted a 1-ml syringe was filled with insulin composition or vehicle. A 4-5 cm midline incision was made in the abdominal wall. […]
Blood samples for the determination of whole blood glucose concentrations were collected in heparinised 10 μl capillary tubes by puncture of the capillary vessels in the tail tip. Blood glucose concentrations were measured after dilution in 500 μl analysis buffer by the glucose oxidase method using a Biosen autoanalyzer (EKF Diagnostic Gmbh, Germany). […]
Samples were collected for determination of the plasma insulin concentration. […] Plasma concentrations of the insulin analogues were measured in a immunoassay. […]

For the compound `CCCCCCCCCCCC(=O)N[C@H](C)C(=O)N[C@H](C)C(=O)N1CCC[C@@H]1C(=O)N[C@H](Cc1ccccc1)C(=O)O` [Example 1, N-dodecanoyl-DAla-DAla-DPro-DPhe-OH] (Lauroyl-[dA][dA][dP][dF]-OH), the Bioavailability stood at 4.5 ± 2.7%.
